Source: US5965743A, “N-substituted imidazol derivative” (Nippon Soda Co., Ltd., priority 1994, dated 1999)
Read-outs that look alike come from different tables or passages of the source.

Assays:
[1] = system: biosynthesis of cholesterol; experiment: Inhibitory effect on biosynthesis of cholesterol in cell-free biosystem; assay type: biochemical, rat (SD-strain); conditions: cell-free rat liver enzyme system, 90 min, 37° C., pH 7.4; read-out: 50% Inhibitory Concentration (IC50), cholesterol biosynthesis
Protocol: Inhibitory Effect on Biosynthesis of Cholesterol in Cell-free Biosystem
(1) Preparation of Enzyme Reaction System
The preparation of the enzymatic system for the biosynthesis of cholesterol in rats was carried out according to the method described in Biochimica et Biophysica Acta, Vol.486, pp 70-81, 1977.
More particularly, SD-strain female rats weighing from […] were fed for 7 to 10 days with a diet containing 2% cholestyramine to enhance their biosynthetic activity of cholesterol. After killed the rats by means of depletion of blood in midnight, the livers thereof were removed and homogenized with a double volume of 0.1 M potassium phosphate buffer solution (pH 7.4) containing 15 mM nicotine amide and 2 mM magnesium chloride by using a loose fitting-type teflon homogenizer. The supernatant obtained by centrifuging the homogenate at 12,000×g for 30 min. was further centrifuged at 105,000×g for 90 min., thereby separating it to the microsome fraction and the supernatant fraction. The supernatant obtained were kept as the fraction resulting in the precipitation in 40-80% ammonium sulfate (hereinafter referred to as "soluble fraction"). Each of the soluble fraction and the microsome fraction were independently adjusted with 0.1 M potassium phosphate buffer solution (pH 7.4) to the volumes of 1 ml/g of liver and 1 ml/3 g of liver, respectively, and were kept and used in the subsequent tests as an enzyme solution for the mixing ratio of 16:1.
(2) Method for Measuring Cholesterol Biosynthesis Activity
Cholesterol biosynthesis activity was measured according to the method described in Biochimica Biophysica Acta, Vol.486, pp 70-81, 1977. 2 μl dimethylsulfoxide solution of the test compound were added to a solution composed of 50 μl of the enzyme solution prepared in (1) described above, 0.1 M potassium phosphate buffer solution (pH 7.4), 1 mM ATP, 5 mM glucose-1-phosphate, 6 mM glutathione, 6 mM magnesium chloride, 0.04 mM coenzyme A, 0.25 mM NAD, 0.25 mM NADP and 1 mM 2-^14 C-sodium acetate (111 MBq./mmol), and the resultant solution was adjusted to the whole volume of 0.2 ml and then allowed to a reaction for 90 min. at 37° C. while shaking. The reaction was then stopped by adding 1 ml of 15% ethanol solution of potassium hydroxide, and the solution was then heated for 1 hour at 75° C. After extracted unsaponificated products with hexane from the solution, the solution was then condensed and dried to the hard state and subsequently dissolved in small volume of a mixture of chloroform and methanol (mixing ratio; 1:2). The resultant chloroform-methanol solution was spotted on a pre-coated silica gel TLC plate, then developed with a developer composed of benzene and ethyl acetate (mixing ratio; 9:1). The cholesterol spot was then taken out from the plate, and the radient activity of the spot was measured by using a liquid scintillation counter. Based on the radio-activity measured, mthe 50% inhibitory concentration (IC50) of the compounds of the present invention were determined.

[2] = system: Triton WR-1339-Induced Hyperlipemia Mice; experiment: Effect on serum lipid in Triton WR-1339-induced hyperlipemia mice; assay type: in vivo, mouse (Crj:ICR-strain); conditions: Mus musculus, po (3 x 33.3 mg/kg), average of 10 animals, 24 hours
Protocol: For this test, Crj:ICR-strain male mice aged 7-9 weeks were provided. […] After 24 hours, blood sampling was performed for each mouse from the abdominal aorta under anesthesia with ether, and the collected blood were placed into plastic test tubes being placed with a blood separating agent beforehand, then after 30 min. or 1 hour, the blood sampled was centrifuged at 10,000 rpm to obtain the serum. Total cholesterol value, HDL cholesterol value and total triglyceride value in the serum were respectively measured by using the measuring kits and automatic biochemical analyser.

[3] = system: cholesterol biosynthesis; experiment: In vivo inhibition test on cholesterol biosynthesis in mice; set-up: species or system mouse (Crj:ICR-strain); conditions: n = 5, 30 mg/kg oral; for 14C-Cholesterol in serum: control group 3783 (for 1-71), 5694 (for 2-64, 2-71, 2-72); for Inhibition Rate on cholesterol biosynthesis: vs control group
Protocol: In Vivo Inhibition Test on Cholesterol Biosynthesis
For this test, Crj:ICR-strain male mice aged 7-9 weeks were provided. The mice were fed with a diet containing 2% cholestyramine for 7 to 10 days under reversed lighting condition, namely the mice were placed in dark condition during 7:00 AM to 7:00 PM. Each of the test compounds was dissolved or suspended in either distillated water or 1% aqueous solution of poly(oxyethylene) curing castor oil and was orally administrated to the mice at a dose of 30 mg/kg at 10:30 AM, respectively. After 1 hour following to the administration of the test compound, the mice were intraperitoneally administrated with ^14 C-sodium acetate at a dose of 5 μCi/0.5 ml/mouse, respectively. After 2 hours, blood sampling was performed for each mouse from the abdominal aorta under anesthesia with ether and the blood sampled were placed into plastic test tubes being placed with blood separating agent beforehand to separate the serum, respectively. Each 0.5 ml of the serum was then added with 1 ml of 20% ethanol solution of potassium hydroxide and heated for 3 hours at 75° C. After extracting the unsponified substance with n-hexane, the serum was condensed to the dry hard state and dissolved in small amount of a mixed solution of chloroform and methanol (mixing ratio; 1:2). The resultant chloroform-methanol solution was then spotted on pre-coated silica gel TLC and developed with a mixed solution of benzene and ethyl acetate (mixing ratio; 9:1). The cholesterol spot was then taken out and the radio-activity thereof was measured by using a liquid scintillation counter. Based on the radio-activity measured, the inhibition rate on cholesterol biosynthesis were determined respectively for the compounds of the present invention.

[4] = read-out: % Change of Serum Lipid to Control Group: HDL Cholesterole
[5] = read-out: % Change of Serum Lipid to Control Group: Total Cholesterole
[6] = read-out: % Change of Serum Lipid to Control Group: Total glyceride

Structure (SMILES)	IC50 [1] [µM]	change in vivo at 100 mg/kg [2, 4] [%]	change in vivo at 100 mg/kg [2, 5] [%]	change in vivo at 100 mg/kg [2, 6] [%]	14C-Cholesterol in serum [3] [dpm/1 ml Serum]	Inhibition Rate on cholesterol biosynthesis [3] [%]
O=S(=O)(CCCOc1ccc(-n2ccnc2)cc1)c1ccccc1 [Compound 1-71]	2.4	82	-23	-20	575	85
c1ccc(SCCCOc2ccc(Cn3ccnc3)cc2)cc1 [Compound 2-64, 1-[4-(3-phenylthiopropyloxy)benzyl]imidazole]	6	–	–	–	460	92
O=S(=O)(CCCOc1ccc(Cn2ccnc2)cc1)c1ccccc1 [Compound 2-71]	–	60	-30	-21	73	99
c1ccc(OCCCOc2ccc(Cn3ccnc3)cc2)cc1 [Compound 2-72]	6	28	-21	-29	3980	30
